Test results published in US11773086B2, “Fungal modulators” (TRUSTEES OF BOSTON UNIVERSITY, priority 2020, dated 2023).

What was measured:
[1] = system: Saccharomyces cerevisiae (BY4741); test: Azoffluxin dose-response with background fluconazole; assay type: cell-based; settings: fluconazole-sensitive laboratory strain BY4741, background FLC 0.5 μg/mL
Method: FIGS. 2A-2E illustrate the above-described screening of the BU-CMD which identified azoffluxin as a fluconazole (FLC) potentiator against C. auris. […] Growth, as determined by optical density at 600 nm (OD600), is plotted in the presence of each CMD compound alone on the y-axis and in combination with FLC on the x-axis. Dotted lines represent 7-median absolute deviations from the median for each condition. […] FIG. 2B depicts the synergistic interactions. […] Growth was measured by the OD600 and normalized to the no drug control (see color bar). The fractional inhibitory concentration index (FICI) was calculated to determine the chemical interaction, with a value below 0.5 indicating synergy. […] FIG. 2D depicts FLC Etest strips in the presence and absence of 50 μM azoffluxin. […]
Compound potency was assessed alone by dose response assays or in combination with another compound by dose-response matrixes in 96-well plates, or 384-well, flat-bottom, microtiter plates (Corning) as previously described. […] Growth was quantified by measuring OD600 and corrected for medium background. All strains were assessed in biological duplicate experiments with technical duplicates. […] For dose-response matrixes fractional inhibitory concentration index at 90% growth inhibition (FICI90) was calculated as previously described. […]

C. neoformans = test: Fluconazole efficacy with azoffluxin; assay type: cell-based, Cryptococcus neoformans; settings: despite increasing Nile red
Description: FIGS. 11A and 11B illustrate Nile red Accumulation in C. albicans, C. glabrata, and C. neoformans.

[2] = Single dose plasma pharmacokinetic profile; assay type: in vivo, mice; settings: mouse
C. auris B11801 = test: Kidney fungal burden (CFU) in infected mice; assay type: in vivo; settings: azoffluxin 10 mg/Kg SC four-times daily + fluconazole 32 mg/Kg IP twice daily, four days
Method: FIG. 10A depicts mammalian embryonic kidney (293T) cells expressing luciferase used to quantify mammalian cell growth in co-culture. Mammalian cells were seeded in 384-well plates in DMEM medium at 5×10^5 cells/mL overnight. After 24 hours the indicated concentration of compound (⋅ indicates combo treatment concentrations) was added along with 2.5×10^3 cells/mL of C. auris. Co-cultures were incubated for 48 hours at 37° C. and then the luminescence was measured as an output of mammalian cell growth. […] FIG. 10C depicts checkerboard assays performed as described in FIG. 2B with C. auris Clade IV isolate B11801. Relative growth was measured after 24 hours using OD600 and normalized to no-drug control wells (see color bar). The FICI calculated for each checkerboard is shown in the top right of each plot, with values<0.5 indicating synergy. […] Input is the CFU recovered in an aliquot of the fungal suspension use to inoculate mice. […] Fluconazole was administered at 32 mg/Kg IP twice daily and azoffluxin at 10 mg/Kg SC four-times daily. Error bars; SD, n=3 mice/treatment group.

C=C(C)C[C@@H](O)COc1cc2c(cc1C1(c3cc4c(cc3OC[C@H](O)CC(=C)C)OCO4)C(=O)Nc3cc(F)ccc31)OCO2 [CMLD012336]
enhancement of fluconazole activity [1]: did not enhance the activity of fluconazole | enhancement of fluconazole efficacy (C. neoformans): did not enhance the efficacy of fluconazole | half-life [2]: 2.6 h | antifungal activity of fluconazole in mice (kidney CFU) (C. auris B11801): markedly increases the antifungal activity of fluconazole
